Experiments:
[1] = molecular target: soluble human BACE1 catalytic domain (Homo sapiens (Human), UniProt P56817); assay: BACE-1 Ki Assay (BACE-1 HTRF FRET Assay); assay type: biochemical; settings: Ki calculated from IC50 using the Cheng-Prusoff equation; QSY7-APPswe-Eu substrate 200 nM, pH 5.0
Method: In another embodiment, the compounds of the invention comprise the example compounds shown in the table below, or a tautomer thereof, or a pharmaceutically acceptable salt of said compound or said tautomer. Examples 2 to 42 were prepared using the method similar to Ex. 1. Example 44 to 51 were synthesized using the method similar to Ex. 43. BACE-1 values reported in this table were measured using BACE-1 Ki Assay (BACE-1 HTRF FRET Assay).
• Reagents: Na^+-Acetate pH 5.0; 1% Brij-35; Glycerol; Dimethyl Sulfoxide (DMSO); Recombinant human soluble BACE1 catalytic domain (>95% pure); APP Swedish mutant peptide substrate (QSY7-APP^swe-Eu): QSY7-EISEVNLDAEFC-Europium-amide.
A homogeneous time-resolved FRET assay can be used to determine IC50 values for inhibitors of the soluble human BACE1 catalytic domain. This assay monitors the increase of 620 nm fluorescence that resulted from BACE1 cleavage of an APPswedish APP^swe mutant peptide FRET substrate (QSY7-EISEVNLDAEFC-Europium-amide). This substrate contains an N-terminal QSY7 moiety that serves as a quencher of the C-terminal Europium fluorophore (620 nm Em). In the absence of enzyme activity, 620 nm fluorescence is low in the assay and increased linearly over 3 hours in the presence of uninhibited BACE1 enzyme. Inhibition of BACE1 cleavage of the QSY7-APP^swe-Eu substrate by inhibitors is manifested as a suppression of 620 nm fluorescence.
Varying concentrations of inhibitors at 3× the final desired concentration in a volume of 10 ul are preincubated with purified human BACE1 catalytic domain (3 nM in 10 μl) for 30 minutes at 30° C. in reaction buffer containing 20 mM Na-Acetate pH 5.0, 10% glycerol, 0.1% Brij-35 and 7.5% DSMO. Reactions are initiated by addition of 10 μl of 600 nM QSY7-APP^swe-Eu substrate (200 nM final) to give a final reaction volume of 30 μl in a 384 well Nunc HTRF plate. The reactions are incubated at 30° C. for 1.5 hours. The 620 nm fluorescence is then read on a Rubystar HTRF plate reader (BMG Labtechnologies) using a 50 millisecond delay followed by a 400 millisecond acquisition time window. Inhibitor IC50 values are derived from non-linear regression analysis of concentration response curves. Ki values are then calculated from IC50 values using the Cheng-Prusoff equation using a previously determined […] of 8 μM for the QSY7-APP^swe-Eu substrate at BACE1.

[2] = molecular target: purified human autoBACE-2 (Homo sapiens (Human), UniProt Q9Y5Z0); assay: BACE-2 Assay (BACE-HTRF assay); assay type: biochemical; settings: Ki calculated from IC50 using the Cheng-Prusoff equation; QSY7-EISEVNLDAEFC-Eu-amide substrate 200 nM, pH 5.0
Method: Inhibitor IC50s at purified human autoBACE-2 are determined in a time-resolved endpoint proteolysis assay that measures hydrolysis of the QSY7-EISEVNLDAEFC-Eu-amide FRET peptide substrate (BACE-HTRF assay). BACE-mediated hydrolysis of this peptide results in an increase in relative fluorescence (RFU) at 620 nm after excitation with 320 nm light. Inhibitor compounds, prepared at 3× the desired final concentration in 1×BACE assay buffer (20 mM sodium acetate pH 5.0, 10% glycerol, 0.1% Brij-35) supplemented with 7.5% DMSO are pre-incubated with an equal volume of autoBACE-2 enzyme diluted in 1×BACE assay buffer (final enzyme concentration 1 nM) in black 384-well NUNC plates for 30 minutes at 30° C. […] DMSO is present at […] final concentration in the assay. Following laser excitation of sample wells at 320 nm, the fluorescence signal at 620 nm is collected for 400 ms following a 50 μs delay on a RUBYstar HTRF plate reader (BMG Labtechnologies). Raw RFU data is normalized to maximum (1.0 nM BACE/DMSO) and minimum (no enzyme/DMSO) RFU values. IC50s are determined by nonlinear regression analysis (sigmoidal dose response, variable slope) of percent inhibition data with minimum and maximum values set to 0 and 100 percent respectively. Similar IC50s are obtained when using raw RFU data. The Ki values are calculated from the IC50 using the Cheng-Prusoff equation.

Sequence of soluble human BACE1 catalytic domain (P56817 75-416): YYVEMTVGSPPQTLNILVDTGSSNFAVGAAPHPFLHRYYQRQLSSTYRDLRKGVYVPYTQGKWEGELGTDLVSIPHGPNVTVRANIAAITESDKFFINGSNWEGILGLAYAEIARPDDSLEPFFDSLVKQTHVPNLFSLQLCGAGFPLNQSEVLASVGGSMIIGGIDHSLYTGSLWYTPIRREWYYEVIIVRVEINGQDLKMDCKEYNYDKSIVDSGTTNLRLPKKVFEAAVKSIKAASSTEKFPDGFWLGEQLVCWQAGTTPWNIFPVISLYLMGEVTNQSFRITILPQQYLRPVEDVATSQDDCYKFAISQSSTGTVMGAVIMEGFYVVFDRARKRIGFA
Sequence of purified human autoBACE-2 (Q9Y5Z0 63-473 limits assumed): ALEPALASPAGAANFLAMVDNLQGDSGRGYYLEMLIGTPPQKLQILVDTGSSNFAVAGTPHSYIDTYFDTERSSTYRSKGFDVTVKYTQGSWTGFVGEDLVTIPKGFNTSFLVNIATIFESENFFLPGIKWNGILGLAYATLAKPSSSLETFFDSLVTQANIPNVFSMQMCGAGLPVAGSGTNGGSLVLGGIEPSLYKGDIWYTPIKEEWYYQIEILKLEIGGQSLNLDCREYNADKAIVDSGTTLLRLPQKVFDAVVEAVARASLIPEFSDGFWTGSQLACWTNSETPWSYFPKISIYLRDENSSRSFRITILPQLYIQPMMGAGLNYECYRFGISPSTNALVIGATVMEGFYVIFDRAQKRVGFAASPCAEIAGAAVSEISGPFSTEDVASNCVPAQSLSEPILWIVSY

Compound | Ki [1] | Ki [2]
C[C@@]1(c2cc(-c3cccc(-c4nnco4)c3)cs2)Cc2nc(C(F)(F)F)ncc2C(=N)N1 [Example 42, (7S)-7-methyl-7-{4-[3-(1,3,4-oxadiazol-2-yl)phenyl]thiophen-2-yl}-2-(trifluoromethyl)-7,8-dihydropyrido[4,3-d]pyrimidin-5(6H)-imine] | 49.6 nM | 121 nM
C[C@@]1(c2cc(NC(=O)c3ccc(F)cn3)ccc2F)Cc2ncncc2C(=N)N1 [Example 43, 5-fluoro-N-{4-fluoro-3-[(7S)-5-imino-7-methyl-5,6,7,8-tetrahydropyrido[4,3-d]pyrimidin-7-yl]phenyl}pyridine-2-carboxamide] | 9.4 nM | 3 nM
Cc1ncc2c(n1)C[C@@](C)(c1cc(NC(=O)c3ccc(F)cn3)ccc1F)NC2=N [Example 44, 5-fluoro-N-{4-fluoro-3-[(7S)-5-imino-2,7-dimethyl-5,6,7,8-tetrahydropyrido[4,3-d]pyrimidin-7-yl]phenyl}pyridine-2-carboxamide] | 16.8 nM | 4.5 nM
Cc1ncc2c(n1)C[C@@](C)(c1cc(NC(=O)c3ccc(Cl)cn3)ccc1F)NC2=N [Example 45, 5-chloro-N-{4-fluoro-3-[(7S)-5-imino-2,7-dimethyl-5,6,7,8-tetrahydropyrido[4,3-d]pyrimidin-7-yl]phenyl}pyridine-2-carboxamide] | 10.4 nM | 4.2 nM
Cc1ncc2c(n1)C[C@@](C)(c1cc(NC(=O)c3ccc(C(F)(F)F)cn3)ccc1F)NC2=N [Example 46, N-{4-fluoro-3-[(7S)-5-imino-2,7-dimethyl-5,6,7,8-tetrahydropyrido[4,3-d]pyrimidin-7-yl]phenyl}-5-(trifluoromethyl)pyridine-2-carboxamide] | 18.1 nM | 48.3 nM

Second part, the molecule after the results:

Ki [1] | Ki [2] | Compound
15.4 nM | 15.3 nM | COc1ccc(C(=O)Nc2ccc(F)c([C@]3(C)Cc4nc(C)ncc4C(=N)N3)c2)nc1 [Example 47, N-{4-fluoro-3-[(7S)-5-imino-2,7-dimethyl-5,6,7,8-tetrahydropyrido[4,3-d]pyrimidin-7-yl]phenyl}-5-methoxypyridine-2-carboxamide]
13.1 nM | 3 nM | C[C@@]1(c2cc(NC(=O)c3ccc(F)cn3)ccc2F)Cc2nc(C3CC3)ncc2C(=N)N1 [Example 48, N-{3-[(7S)-2-cyclopropyl-5-imino-7-methyl-5,6,7,8-tetrahydropyrido[4,3-d]pyrimidin-7-yl]-4-fluorophenyl}-5-fluoropyridine-2-carboxamide]
20.5 nM | 34.2 nM | C[C@@]1(c2cc(NC(=O)c3ccc(C(F)(F)F)cn3)ccc2F)Cc2nc(C3CC3)ncc2C(=N)N1 [Example 49, N-{3-[(7S)-2-cyclopropyl-5-imino-7-methyl-5,6,7,8-tetrahydropyrido[4,3-d]pyrimidin-7-yl]-4-fluorophenyl}-5-(trifluoromethyl)pyridine-2-carboxamide]
7.1 nM | 10.9 nM | Cc1ncc2c(n1)C[C@](c1cc(NC(=O)c3ccc(C#N)cn3)ccc1F)(C(F)F)NC2=N [Example 50, 5-cyano-N-{3-[(7S)-7-(difluoromethyl)-5-imino-2-methyl-5,6,7,8-tetrahydropyrido[4,3-d]pyrimidin-7-yl]-4-fluorophenyl}pyridine-2-carboxamide]
62.7 nM | 207 nM | C[C@@]1(c2cc(NC(=O)c3ccc(C#N)cn3)ccc2F)Cc2nccnc2C(=N)N1 [Example 51, 5-cyano-N-{4-fluoro-3-[(7S)-5-imino-7-methyl-5,6,7,8-tetrahydropyrido[3,4-b]pyrazin-7-yl]phenyl}pyridine-2-carboxamide]

Reference: patent publication US9868738B2, “Diazine-fused amidines as BACE inhibitors, compositions, and their use” (Merck Sharp & Dohme Corp., priority 2014, dated 2018)
